Data on 22 compounds can be found in US11149011B2, “Compounds and methods for IDO and TDO modulation, and indications therefor” (Plexxikon Inc., priority 2018, dated 2021).

The target of one assay is T1, IDO1 (Homo sapiens, UniProt P14902).
T1 construct: His tag (N); made in house; host or cells: E. coli
Briefly: IDO enzymatic assay. It counts as biochemical. Particulars: geometric mean; read-out: IDO1 GMean: IC50 (μM) (Biochemical Assay). The method in brief: (§1)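 N-His human enzymes from E. coli in 50 mM sodium phosphate pH 6.5 with ascorbate, catalase, Tween 20. IDO: 6 nM enzyme, 10 μM L-Trp, 5 μM methylene blue, 20 min RT; TDO: 1 nM enzyme, 350 μM L-Trp, 0.4 μM methylene blue, 70 min RT. TCA stop, kynurenine measured; IC50 by nonlinear regression.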

In the next assay the target is T2, TDO (Homo sapiens, UniProt P48775).
T2 construct: His tag (N); made in house; host or cells: E. coli
Briefly: TDO enzymatic assay. Particulars: geometric mean; read-out: TDO GMean: IC50 (μM) (Biochemical Assay). Put shortly:
as §1

Assay [1] concerns the target T3, IDO1-expressing HEK293 cell clones (Homo sapiens, UniProt P14902).
T3 construct: expressed in transfected cells; host or cells: HEK293
The assay is described as follows: Cell based kynurenine assay, IDO1-expressing HEK293 cell clones. Particulars: HEK293 cells, 24 hours of incubation, geometric mean; read-out: HEK293 IDO1 Kynurenine GMean IC50 (μM) (Cellular Assay). The method in brief:
(§2)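 HEK293 clones stably transfected with CMV-driven human IDO1 or human TDO were seeded at 2.5×10^4 cells/well and treated with serial compound dilutions for 24 hours. Supernatant kynurenine was measured. % inhibition versus DMSO-cell and media-only controls was fitted by nonlinear regression to give IC50.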

Assay [2] addresses T4, TDO-expressing HEK293 cell clones (Homo sapiens, UniProt P48775).
T4 construct: expressed in transfected cells; host or cells: HEK293
The assay is described as follows: Cell based kynurenine assay, TDO-expressing HEK293 cell clones. Particulars: HEK293 cells, 24 hours of incubation, geometric mean; read-out: HEK293 TDO Kynurenine GMean IC50 (μM) (Cellular Assay). The method in brief: as §2

A value given as a limit tells only on which side of the number the result lay.

T2 sequence (P48775 whole entry): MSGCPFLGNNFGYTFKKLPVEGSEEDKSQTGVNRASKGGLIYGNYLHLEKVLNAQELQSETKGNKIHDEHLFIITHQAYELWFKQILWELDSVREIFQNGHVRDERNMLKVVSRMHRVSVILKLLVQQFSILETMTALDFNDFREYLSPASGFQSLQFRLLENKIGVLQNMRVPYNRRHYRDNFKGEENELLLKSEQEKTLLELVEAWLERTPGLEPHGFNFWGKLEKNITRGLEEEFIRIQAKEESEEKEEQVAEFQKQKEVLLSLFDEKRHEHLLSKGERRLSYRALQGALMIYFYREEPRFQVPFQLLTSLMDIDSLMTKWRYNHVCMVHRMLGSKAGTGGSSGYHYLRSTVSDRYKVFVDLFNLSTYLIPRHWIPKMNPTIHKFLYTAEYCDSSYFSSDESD
T4 sequence (P48775 whole entry): as above
T1 sequence (P14902 whole entry): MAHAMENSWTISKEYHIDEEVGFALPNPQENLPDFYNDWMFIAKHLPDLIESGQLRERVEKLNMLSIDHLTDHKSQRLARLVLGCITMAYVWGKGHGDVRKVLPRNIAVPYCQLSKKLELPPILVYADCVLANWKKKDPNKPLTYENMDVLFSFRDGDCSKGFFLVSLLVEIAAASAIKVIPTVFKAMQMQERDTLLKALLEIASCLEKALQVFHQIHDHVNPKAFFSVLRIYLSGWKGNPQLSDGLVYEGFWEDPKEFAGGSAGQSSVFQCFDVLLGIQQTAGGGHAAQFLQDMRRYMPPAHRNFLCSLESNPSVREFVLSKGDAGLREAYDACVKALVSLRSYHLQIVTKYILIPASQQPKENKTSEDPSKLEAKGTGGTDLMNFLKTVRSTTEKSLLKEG
T3 sequence (P14902 whole entry): as above

The term IC50 denotes the concentration that inhibits the measured activity by half. On to `CC(C)(N)C(=O)N1CCC(C(C)(C)[C@H](O)c2cc(Cl)cc3cn[nH]c23)CC1` [Compound P-0067, (S)-2-amino-1-(4-(1-(5-chloro-1H-indazol-7-yl)-1-hydroxy-2-methylpropan-2-yl)piperidin-1-yl)-2-methylpropan-1-one], for which the IC50 (on IDO1; at TDO; in assay [1]; in assay [2]) was 0.0001 to 10 µM each time.
Regarding `CCCS(=O)(=O)N1CCC(C(C)(C)C(O)c2cc(Cl)cc3[nH]ncc23)CC1` (stereo not shown) [Compound P-0071], the IC50 (on IDO1; on TDO; in assay [1]; in assay [2]) was 0.0001 to 10 µM each time.
With `CCS(=O)(=O)N1CCC(C(C)(C)C(O)c2cc(Cl)cc3[nH]ncc23)CC1` (stereo not shown) [Compound P-0072, 1-(6-chloro-1H-indazol-4-yl)-2-(1-(ethylsulfonyl)piperidin-4-yl)-2-methylpropan-1-ol], the IC50 on IDO1 was 0.0001 to 10 µM; at TDO, 0.0001 to 10 µM; in assay [1] it was above 10 µM; in assay [2], 0.0001 to 10 µM.
In the case of `CC(C)(C1CCN(S(=O)(=O)C2CC2)CC1)C(O)c1cc(Cl)cc2[nH]ncc12` (stereo not shown) [Compound P-0073, 1-(6-chloro-1H-indazol-4-yl)-2-(1-(cyclopropylsulfonyl)piperidin-4-yl)-2-methylpropan-1-ol], the IC50 was 0.0001 to 10 µM on IDO1, 0.0001 to 10 µM on TDO, above 10 µM in assay [1] and 0.0001 to 10 µM in assay [2].
In the case of `CC(C)NC(=O)N1CCC(C(C)(C)C(O)c2cc(Cl)cc3[nH]ncc23)CC1` (stereo not shown) [Compound P-0074, 4-(1-(6-chloro-1H-indazol-4-yl)-1-hydroxy-2-methylpropan-2-yl)-N-isopropylpiperidine-1-carboxamide], the half-inhibitory concentration (IC50) (at IDO1; at TDO; in assay [1]; in assay [2]) was 0.0001 to 10 µM throughout.
As for `CC(C)(C1CCN(C(=O)Nc2cccnc2)CC1)C(O)c1cc(Cl)cc2[nH]ncc12` (stereo not shown) [Compound P-0075, 4-(1-(6-chloro-1H-indazol-4-yl)-1-hydroxy-2-methylpropan-2-yl)-N-(pyridin-3-yl)piperidine-1-carboxamide], the IC50 on IDO1 was 0.0001 to 10 µM; at TDO, 0.0001 to 10 µM; in assay [1], above 10 µM; in assay [2], 0.0001 to 10 µM.
For the compound `CCNC(=O)N1CCC(C(C)(C)C(O)c2cc(Cl)cc3[nH]ncc23)CC1` (stereo not shown) [Compound P-0076, 4-(1-(6-chloro-1H-indazol-4-yl)-1-hydroxy-2-methylpropan-2-yl)-N-ethylpiperidine-1-carboxamide], the IC50 (at IDO1; on TDO; in assay [1]; in assay [2]) was 0.0001 to 10 µM in each case.
As for `CCCNC(=O)N1CCC(C(C)(C)C(O)c2cc(Cl)cc3[nH]ncc23)CC1` (stereo not shown) [Compound P-0077, 4-(1-(6-chloro-1H-indazol-4-yl)-1-hydroxy-2-methylpropan-2-yl)-N-propylpiperidine-1-carboxamide], the IC50 (at IDO1; at TDO; in assay [1]; in assay [2]) was 0.0001 to 10 µM in each case.
Turning to `CC(C)(C1CCN(C(=O)NC2CCC2)CC1)C(O)c1cc(Cl)cc2[nH]ncc12` (stereo not shown) [Compound P-0078, 4-(1-(6-chloro-1H-indazol-4-yl)-1-hydroxy-2-methylpropan-2-yl)-N-cyclobutylpiperidine-1-carboxamide], the IC50 (at IDO1; on TDO; in assay [1]; in assay [2]) was 0.0001 to 10 µM throughout.
For `CC(C)(C1CCN(C(=O)NC2CCOCC2)CC1)C(O)c1cc(Cl)cc2[nH]ncc12` (stereo not shown) [Compound P-0079, 4-(1-(6-chloro-1H-indazol-4-yl)-1-hydroxy-2-methylpropan-2-yl)-N-(tetrahydro-2H-pyran-4-yl)piperidine-1-carboxamide], the IC50 (on IDO1; on TDO; in assay [1]; in assay [2]) was 0.0001 to 10 µM in each case.
Regarding `CC(C)(C1CCN(C(=O)NCC2CC2)CC1)C(O)c1cc(Cl)cc2[nH]ncc12` (stereo not shown) [Compound P-0080, 4-(1-(6-chloro-1H-indazol-4-yl)-1-hydroxy-2-methylpropan-2-yl)-N-(cyclopropylmethyl)piperidine-1-carboxamide], the IC50 (on IDO1; at TDO; in assay [1]; in assay [2]) was 0.0001 to 10 µM each time.
Take `CC(C)(C1CCN(C(=O)NC2CC2)CC1)C(O)c1cc(Cl)cc2[nH]ncc12` (stereo not shown) [Compound P-0081, 4-(1-(6-chloro-1H-indazol-4-yl)-1-hydroxy-2-methylpropan-2-yl)-N-cyclopropylpiperidine-1-carboxamide]: the IC50 (on IDO1; on TDO; in assay [1]; in assay [2]) was 0.0001 to 10 µM in each case.
Turning to `CC(C)(C1CCN(C(=O)Nc2ccc(F)cc2F)CC1)C(O)c1cc(Cl)cc2[nH]ncc12` (stereo not shown) [Compound P-0082, 4-(1-(6-chloro-1H-indazol-4-yl)-1-hydroxy-2-methylpropan-2-yl)-N-(2,4-difluorophenyl)piperidine-1-carboxamide], the 50% inhibitory concentration (IC50) on IDO1 was 0.0001 to 10 µM; at TDO it was 0.0001 to 10 µM; in assay [1] it was above 10 µM; in assay [2] it was 0.0001 to 10 µM.
In the case of `COCCNC(=O)N1CCC(C(C)(C)C(O)c2cc(Cl)cc3[nH]ncc23)CC1` (stereo not shown) [Compound P-0083, 4-(1-(6-chloro-1H-indazol-4-yl)-1-hydroxy-2-methylpropan-2-yl)-N-(2-methoxyethyl)piperidine-1-carboxamide], the IC50 (on IDO1; on TDO; in assay [1]; in assay [2]) was 0.0001 to 10 µM each time.
Regarding `CC(C)(C1CCN(C(=O)NCC(F)(F)F)CC1)C(O)c1cc(Cl)cc2[nH]ncc12` (stereo not shown) [Compound P-0084, 4-(1-(6-chloro-1H-indazol-4-yl)-1-hydroxy-2-methylpropan-2-yl)-N-(2,2,2-trifluoroethyl)piperidine-1-carboxamide], the half-maximal inhibitory concentration (IC50) (at IDO1; on TDO; in assay [1]; in assay [2]) was 0.0001 to 10 µM throughout.
Turning to `CC(C)(C1CCN(C(=O)NCCS(C)(=O)=O)CC1)C(O)c1cc(Cl)cc2[nH]ncc12` (stereo not shown) [Compound P-0085, 4-(1-(6-chloro-1H-indazol-4-yl)-1-hydroxy-2-methylpropan-2-yl)-N-(2-(methylsulfonyl)ethyl)piperidine-1-carboxamide], the half-inhibitory concentration (IC50) was 0.0001 to 10 µM on IDO1, 0.0001 to 10 µM at TDO, above 10 µM in assay [1] and 0.0001 to 10 µM in assay [2].
Take `CC(C)(C1CCN(C(=O)NCCC(F)(F)F)CC1)C(O)c1cc(Cl)cc2[nH]ncc12` (stereo not shown) [Compound P-0086, 4-(1-(6-chloro-1H-indazol-4-yl)-1-hydroxy-2-methylpropan-2-yl)-N-(3,3,3-trifluoropropyl)piperidine-1-carboxamide]: the IC50 (on IDO1; at TDO; in assay [1]; in assay [2]) was 0.0001 to 10 µM throughout.
In the case of `CC(C)(C1CCN(C(=O)NCC#N)CC1)C(O)c1cc(Cl)cc2[nH]ncc12` (stereo not shown) [Compound P-0087, 4-(1-(6-chloro-1H-indazol-4-yl)-1-hydroxy-2-methylpropan-2-yl)-N-(cyanomethyl)piperidine-1-carboxamide], the IC50 is 0.0001 to 10 µM on IDO1, 0.0001 to 10 µM on TDO, above 10 µM in assay [1] and 0.0001 to 10 µM in assay [2].
Take `C#CCNC(=O)N1CCC(C(C)(C)C(O)c2cc(Cl)cc3[nH]ncc23)CC1` (stereo not shown) [Compound P-0088, 4-(1-(6-chloro-1H-indazol-4-yl)-1-hydroxy-2-methylpropan-2-yl)-N-(prop-2-yn-1-yl)piperidine-1-carboxamide]: the half-maximal inhibitory concentration (IC50) on IDO1 was 0.0001 to 10 µM; on TDO, 0.0001 to 10 µM; in assay [1], above 10 µM; in assay [2], 0.0001 to 10 µM.
On to `CNC(=O)CNC(=O)N1CCC(C(C)(C)C(O)c2cc(Cl)cc3[nH]ncc23)CC1` (stereo not shown) [Compound P-0089, 4-(1-(6-chloro-1H-indazol-4-yl)-1-hydroxy-2-methylpropan-2-yl)-N-(2-(methylamino)-2-oxoethyl)piperidine-1-carboxamide], for which the IC50 (on IDO1; at TDO; in assay [1]; in assay [2]) was 0.0001 to 10 µM throughout.
On to `CC(C)(C1CCN(C(=O)NCCCF)CC1)C(O)c1cc(Cl)cc2[nH]ncc12` (stereo not shown) [Compound P-0090, 4-(1-(6-chloro-1H-indazol-4-yl)-1-hydroxy-2-methylpropan-2-yl)-N-(3-fluoropropyl)piperidine-1-carboxamide], for which the concentration for half-maximal inhibition (IC50) at IDO1 was 0.0001 to 10 µM; at TDO it was 0.0001 to 10 µM; in assay [1], above 10 µM; in assay [2], 0.0001 to 10 µM.
Turning to `CC(C)(C1CCN(C(=O)NCC(F)F)CC1)C(O)c1cc(Cl)cc2[nH]ncc12` (stereo not shown) [Compound P-0091, 4-(1-(6-chloro-1H-indazol-4-yl)-1-hydroxy-2-methylpropan-2-yl)-N-(2,2-difluoroethyl)piperidine-1-carboxamide], the IC50 (on IDO1; on TDO; in assay [1]; in assay [2]) was 0.0001 to 10 µM in each case.
